In this assay the target is FFA1-Nluc (Homo sapiens, UniProt O14842). Briefly: DISCo-BRET (endpoint, spectra scan, kinetics) with TUG-2591 and TUG-2597 at C terminal Nluc tagged FFA1. Type of assay: binding. Conditions: for pIC50 DISCo-BRET NBD/Nluc / pIC50 DISCo-BRET SulfoCy5/NBD / 'bottom' of the IC50 curve, DISCo-BRET SulfoCy5/NBD: 100 nM TUG-2591 and […] TUG-2597; for pIC50 DISCo-BRET NBD/Nluc / pIC50 DISCo-BRET SulfoCy5/NBD: NC = No competition; for pIC50 DISCo-BRET SulfoCy5/NBD: one site model; for Specific BRET (540/450), % of control: Figure 4Bii, single replicate values (technical duplicate); for 'bottom' of the IC50 curve, DISCo-BRET NBD/Nluc / 'bottom' of the IC50 curve, DISCo-BRET SulfoCy5/NBD: percentage of binding obtained in the absence of competing ligand; for pKi DISCo-BRET NBD/Nluc: using Kd TUG-2597 380 nM. Also on record: expressed in transfected cells. The procedure, abridged: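 After Nano-Glo substrate (1:800 final), ligand-treated FFA1-Nluc or Nluc-FFA1 cells, doxycycline-induced (100 ng/mL), were read. Kinetic association/dissociation runs were at 25 °C; endpoint and 440–740 nm spectra came after 5 min at 37 °C. Non-specific signal came from competing ligands at high concentration.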
Sequence of FFA1-Nluc (O14842 whole entry): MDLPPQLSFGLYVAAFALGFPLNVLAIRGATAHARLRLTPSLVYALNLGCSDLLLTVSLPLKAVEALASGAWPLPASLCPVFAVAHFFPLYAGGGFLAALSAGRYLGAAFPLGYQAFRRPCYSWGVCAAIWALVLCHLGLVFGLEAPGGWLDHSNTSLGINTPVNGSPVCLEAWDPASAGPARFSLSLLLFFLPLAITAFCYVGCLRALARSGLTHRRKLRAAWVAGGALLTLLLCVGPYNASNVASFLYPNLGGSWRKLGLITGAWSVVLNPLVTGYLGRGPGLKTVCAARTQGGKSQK

Molecules are shown by their SMILES. Several values for one entry are separate records, joined by “and”; a condition that tells them apart may be missing. Identical values can stand only once.

In the case of `COc1ccc(C(=O)N(CC(C)(C)C)c2cccc(C)n2)c(N2CCC(COc3cccc(C(CC(=O)O)C4CC4)c3)CC2)c1.O=C(O)C(F)(F)F` (stereo not drawn) [Cpd 6h, reference compound], the “pIC50 DISCo-BRET NBD/Nluc” value is on record as 7.3±0.1; the “pIC50 DISCo-BRET SulfoCy5/NBD” value stood at 7.4±0.1; the “'bottom' of the IC50 curve, DISCo-BRET NBD/Nluc” value stood at 9.3%; the “'bottom' of the IC50 curve, DISCo-BRET SulfoCy5/NBD” value came out at 16%. For the same compound, the “pKi DISCo-BRET NBD/Nluc” value is on record as 7.5±0.1. Also, the “Specific BRET (540/450), % of control” value (log[Ligand] -5) is 29.23 % of control and -1.54 % of control and -0.53 % of control and 0.53 % of control and 0.62 % of control and 6.18 % of control and -2.77 % of control and 4.56 % of control and -7.63 % of control and 10.97 % of control. Moreover, where the note is “log[Ligand] -5.5”, the “Specific BRET (540/450), % of control” value was 46.57 % of control and -7.13 % of control and 13.78 % of control and 13.63 % of control and 17.56 % of control and 19.08 % of control and -1.79 % of control and 0.81 % of control and 1.43 % of control and -21.22 % of control. For the same compound, the “Specific BRET (540/450), % of control” value (log[Ligand] -6) is 59.72 % of control and 23.08 % of control and 13.18 % of control and 6.55 % of control and 14.37 % of control and 13.95 % of control and 102.77 % of control and 7.65 % of control and 12.16 % of control and 25.98 % of control. In addition, the “Specific BRET (540/450), % of control” value (log[Ligand] -6.5) is 46.01 % of control and 12.17 % of control and 20.56 % of control and 31.70 % of control and 26.58 % of control and 36.43 % of control and 14.98 % of control and 12.87 % of control and 22.17 % of control and 15.73 % of control. In addition, where the note is “log[Ligand] -7”, the “Specific BRET (540/450), % of control” value is 46.01 % of control and 48.53 % of control and 38.93 % of control and 54.59 % of control and 43.79 % of control and 54.75 % of control and 36.48 % of control and 23.45 % of control and 26.46 % of control and 27.41 % of control. In addition, the “Specific BRET (540/450), % of control” value (log[Ligand] -8) is 134.69 % of control and 121.26 % of control and 83.36 % of control and 78.84 % of control and 78.63 % of control and 91.67 % of control and 70.36 % of control and 75.90 % of control and 108.22 % of control and 143.98 % of control. Besides, where the note is “log[Ligand] -9”, the “Specific BRET (540/450), % of control” value was 144.76 % of control and 148.39 % of control and 88.63 % of control and 100.08 % of control and 88.76 % of control and 93.89 % of control and 95.60 % of control and 108.79 % of control and 114.18 % of control and 110.13 % of control.
Consider `COc1ccc(CCCC(C)(C)C)c(N2CCC(COc3cccc(C(CC(=O)O)C4CC4)c3)CC2)c1.O=C(O)C(F)(F)F` (stereo not drawn) [T360], for which the “pIC50 DISCo-BRET NBD/Nluc” value stood at 7.1±0.2; the “pIC50 DISCo-BRET SulfoCy5/NBD” value stood at 7.6±0.1; the “'bottom' of the IC50 curve, DISCo-BRET NBD/Nluc” value was found to be 2.7%; the “'bottom' of the IC50 curve, DISCo-BRET SulfoCy5/NBD” value came out at 25%. The “pKi DISCo-BRET NBD/Nluc” value is 7.3±0.2. Also, where the note is “log[Ligand] -5”, the “Specific BRET (540/450), % of control” value is 1.63 % of control and 7.70 % of control and -6.77 % of control and 6.77 % of control and -12.97 % of control and -14.56 % of control and 1.39 % of control and 12.17 % of control and -49.44 % of control and -45.86 % of control and -1.49 % of control and 1.49 % of control and 11.42 % of control and 8.60 % of control. In addition, the “Specific BRET (540/450), % of control” value (log[Ligand] -5.5) is 30.05 % of control and 22.50 % of control and 2.63 % of control and 15.04 % of control and 41.18 % of control and 27.53 % of control and 25.39 % of control and 35.48 % of control and -24.38 % of control and -7.83 % of control and -19.08 % of control and -0.74 % of control and 16.94 % of control and 11.73 % of control. Besides, the “Specific BRET (540/450), % of control” value (log[Ligand] -6) is 30.79 % of control and 26.05 % of control and 32.33 % of control and 27.63 % of control and 21.16 % of control and 17.29 % of control and 31.30 % of control and 14.26 % of control and 23.94 % of control and -20.81 % of control and -12.14 % of control and 8.18 % of control and 24.56 % of control and 26.12 % of control. The “Specific BRET (540/450), % of control” value (log[Ligand] -6.5) is 56.11 % of control and 56.70 % of control and 19.92 % of control and 23.50 % of control and 31.40 % of control and 51.88 % of control and 45.22 % of control and 38.96 % of control and 25.28 % of control and 31.99 % of control and -27.26 % of control and -0.25 % of control and 41.03 % of control and 36.03 % of control. Besides, where the note is “log[Ligand] -7”, the “Specific BRET (540/450), % of control” value is 69.58 % of control and 52.70 % of control and 27.26 % of control and 51.32 % of control and 37.09 % of control and 73.27 % of control and 43.13 % of control and 45.22 % of control and 35.12 % of control and 64.21 % of control and 2.48 % of control and 20.07 % of control and 56.78 % of control and 46.56 % of control. Also, the “Specific BRET (540/450), % of control” value (log[Ligand] -8) was 90.01 % of control and 86.45 % of control and 67.29 % of control and 72.37 % of control and 95.79 % of control and 112.63 % of control and 106.43 % of control and 144.35 % of control and 71.81 % of control and 80.31 % of control and 48.08 % of control and 68.65 % of control and 78.15 % of control and 70.13 % of control. Further, the “Specific BRET (540/450), % of control” value (log[Ligand] -9) is 104.22 % of control and 94.30 % of control and 79.70 % of control and 92.67 % of control and 141.30 % of control and 86.46 % of control and 144.00 % of control and 157.22 % of control and 122.37 % of control and 108.50 % of control and 74.10 % of control and 106.82 % of control and 97.86 % of control and 85.14 % of control.

(Values after PMC12254266, “Multicolored sequential resonance energy transfer for detection of simultaneous ligand binding at G protein-coupled receptors” (Nature Communications, 2025).)
